Assay results: patent US20110091931A1, “Methods and Kits for Determining Oxygen Free Radical (OFR) Levels in Animal and Human Tissues as a Prognostic Marker for Cancer and Other Pathophysiologies” (COLBY PHARMACEUTICAL COMPANY, priority 2009, published 2011)
Where two headings read alike, the source gives them in different places.

Tests used:
prostate cancer cells = conditions: androgen-dependent and androgen-independent prostate cancer cells; cited from earlier work
Androgen Receptor (AR) = Androgen Receptor (AR) (Homo sapiens, UniProt P10275, T878A); conditions: LNCaP cells; for fluorescence score, geometric mean / fluorescence score, mean after logarithmic transformation: 40 cells
Method: The quantitation of subcellular fluorescence was further validated using a known system—nuclear translocation of AR in LNCaP cells treated with androgen (dihydrotestosterone) or androgen analog metribolone. […] LNCaP cells in charcoal stripped androgen depleted medium are grown for 6 days in the presence of low (0.05 nM) metribolone and 4 more days in the presence of high (1 nM) metribolone. […] For objective analysis of the response, a quantitation of the IHC fluorescence is necessary. The Bioimager was used to quantitate the IHC fluorescence of AR in the nuclei and in the cytoplasm of about 40 cells from four random areas of the microscopic field from each plate.

LNCaP cells [1] = experiment: HPLC quantitation of polyamine and acetyl polyamine levels in LNCaP cells; assay type: cell-based, human; conditions: R1881 1 nM, 96 h
Excerpt: This method is routinely used in the analytical laboratory of the core facility of Cancer Centers and was accessible for quantitative assays necessary for the PK/PD determinations. […] Each data point was an average of two determinations where sample cell pellets were collected from three independent experiments.

LNCaP cells [2] = experiment: DCF dye oxidation assay of androgen (R1881) induced ROS production; assay type: cell-based, human; conditions: cells (si22) transfected with vector transcribing siRNA against SSAT
Method: SSAT induction is a major source of androgen induced oxidative stress. In order to confirm that SSAT was the major source of androgen induced oxidative stress, we developed and used a stable LNCaP cell clone transfected with plasmid transcribing siRNA designed to silence SSAT mRNA expression. The SSAT mRNA level in these cells was determined by qRT-PCR method. In the cells transfected only with the vector, the SSAT mRNA level increased by over 8-fold after 96 h treatment with R1881, whereas in cells stably transfected with SSAT siRNA (si22), R1881 under similar treatment condition induced less than 2-fold increase in the SSAT transcript, showing over 75% silencing of SSAT mRNA expression. The ROS production induced by androgen analog R1881 in these cells was measured by DCF dye oxidation assay. The green fluorescence of oxidized DCF in androgen treated LNCaP cells was shown. The effect of SSAT silencing on the R1881 induced ROS production measured by DCF assay was also shown. The ratio of DCF fluorescence (green):DNA fluorescence (blue) for each of the treated well of a 96 well plate normalized to that of the average of control untreated wells represents the ROS level per cell relative to that in control untreated cells. The data points are the mean of numbers obtained from repeat experiments using thirty identically treated wells.
Each data point was an average of readings from six wells repeated twice in triplicates. […] The ROS levels of all CPC-200 pretreated cells were normalized to the ROS levels of cells treated with CPC-200 alone.

[3] = test system: LNCaP human prostate cancer cells; conditions: 1 nM metribolone, 96 h; cited from earlier work
SSAT = SSAT mRNA level by qRT-PCR in LNCaP cells; assay type: cell-based, human
Method: Each data point was an average of readings from six identically treated LNCaP prostate cancer cell sample wells with readings repeated twice in triplicate sets.
In order to confirm that SSAT was the major source of androgen induced oxidative stress, we developed and used a stable LNCaP cell clone transfected with plasmid transcribing siRNA designed to silence SSAT mRNA expression. The SSAT mRNA level in these cells was determined by qRT-PCR method. […] The ratio of DCF fluorescence (green):DNA fluorescence (blue) for each of the treated well of a 96 well plate normalized to that of the average of control untreated wells represents the ROS level per cell relative to that in control untreated cells. The data points are the mean of numbers obtained from repeat experiments using thirty identically treated wells.

[4] = test system: SSAT (spermidine/spermine acetyl transferase) gene; experiment: DNA microarray analysis of gene expression (Affymetrix Gene chip Array) in LNCaP cells; assay type: cell-based, human; conditions: 1 nM R1881, 96 h vs untreated
Method: SSAT induction is a mechanism of ROS production in CaP cells. In our search for the biochemical mechanism and convenient diagnostic monitoring of androgen-induced ROS production in prostate cells, a DNA microarray analysis of gene expression was also performed using the Affymetrix Gene chip Array We used untreated androgen dependent LNCaP cells and cells treated with 1 nM androgen […] (a well-accepted androgen analog routinely used due to its stability) for 96 h for these studies. […] We noted with considerable interest that among the list of genes that are overexpressed by more than an order of magnitude after androgen-treatment, SSAT is the only enzyme that is directly related to a ROS-generating biochemical pathway.

[5] = test system: LNCaP human prostate cancer cells; experiment: DCFH dye oxidation kinetics (ROS, v0) in nuclei and cytoplasm of LNCaP cells; assay type: cell-based; conditions: metribolone treatment over 24-96 h
Method: Standardization of cell-based fluorescence quantitation assay. We standardized the BD Pathway Bioimager quantitation of cellular ROS using a well-established cell culture based system. […] The ROS levels in these published studies were determined by monitoring DCFH dye oxidation, where DCFH is oxidized to DCF by ROS to yield quantifiable green fluorescence. The DCF fluorescence in live cell cytoplasm and nuclei (FIG. 2B) were quantitated by using the Hoechst 33342 dye staining of the cell nuclei (blue fluorescence in FIG. 2) that allows for auto focusing, positioning and mapping the contour of the cell nuclei and cytoplasms.
(1) Kinetics of DCF dye oxidation: Oxidation of DCFH to fluorescence DCF dye is a relatively fast reaction that is usually complete within 30-60 minutes. […] Curve fitting of the first 20-30 min of the plot of DCF fluorescence intensity vs. time with a pseudo-first order reaction kinetics yields the initial velocity (v0) values of the reaction (see below), which is directly proportional to the ROS concentration at the time point of DCF dye addition.
(1) Real-time kinetics of DCF dye oxidation in cell nuclei and cytoplasm: DCF dye oxidation kinetics in the nuclei and cytoplasm of LNCaP cells were determined using the BD Bioimager software coupled with Sigmaplot curve-fitting program. […]

Androgen Receptor (AR), sequence (P10275 whole entry T878A): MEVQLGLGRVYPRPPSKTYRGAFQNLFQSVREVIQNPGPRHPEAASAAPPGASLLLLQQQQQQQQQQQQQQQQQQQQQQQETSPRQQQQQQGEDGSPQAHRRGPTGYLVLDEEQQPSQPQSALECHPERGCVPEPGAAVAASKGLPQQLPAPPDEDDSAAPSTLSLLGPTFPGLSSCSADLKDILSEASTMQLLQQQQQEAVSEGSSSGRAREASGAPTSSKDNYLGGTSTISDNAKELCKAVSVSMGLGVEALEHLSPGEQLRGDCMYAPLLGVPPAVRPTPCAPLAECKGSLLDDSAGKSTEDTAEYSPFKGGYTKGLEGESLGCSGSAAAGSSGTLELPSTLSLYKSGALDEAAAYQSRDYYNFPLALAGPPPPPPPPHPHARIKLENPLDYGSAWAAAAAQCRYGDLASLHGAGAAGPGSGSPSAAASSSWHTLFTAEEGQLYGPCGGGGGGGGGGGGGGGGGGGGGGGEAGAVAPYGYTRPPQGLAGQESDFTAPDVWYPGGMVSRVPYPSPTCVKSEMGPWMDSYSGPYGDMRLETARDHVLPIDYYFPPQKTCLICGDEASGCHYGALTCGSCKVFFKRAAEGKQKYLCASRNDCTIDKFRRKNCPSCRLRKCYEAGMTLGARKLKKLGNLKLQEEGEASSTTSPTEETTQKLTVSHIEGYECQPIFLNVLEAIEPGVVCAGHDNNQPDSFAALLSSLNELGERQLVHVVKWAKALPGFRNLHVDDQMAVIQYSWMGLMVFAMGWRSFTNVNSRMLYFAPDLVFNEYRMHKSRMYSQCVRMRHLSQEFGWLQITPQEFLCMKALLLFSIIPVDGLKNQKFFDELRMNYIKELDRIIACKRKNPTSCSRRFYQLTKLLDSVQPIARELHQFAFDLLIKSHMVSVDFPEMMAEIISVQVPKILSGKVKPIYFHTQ

Compound: Cc1c(C)c2c(c(C)c1O)CCC(C)(C)O2 [PMCoI, 2,2,5,7,8 pentamethyl 6-chromanol]
- activities against prostate cancer cells (prostate cancer cells): considerable cytotoxic, anti-proliferative and also anti-androgenic activities

Compound: C[C@]1(O)CC[C@H]2[C@@H]3CCC4=CC(=O)CCC4=C3C=C[C@@]21C [metribolone, 17β-17-Hydroxy-17-methyl-estra-4,9,11-trien-3-one]
- fluorescence score, geometric mean (Androgen Receptor (AR); 0.05 nM metribolone (control)): 329
- fluorescence score, mean after logarithmic transformation (Androgen Receptor (AR); 0.05 nM metribolone (control)): 5.80
- increase in the ratio of nuclear fluorescence intensities over the cytoplasmic intensities (AR IHC) (Androgen Receptor (AR); 1 nM metribolone compared to 0.05 nM metribolone): 1.5 fold
- fluorescence score, geometric mean (Androgen Receptor (AR); 1 nM metribolone): 605
- fluorescence score, mean after logarithmic transformation (Androgen Receptor (AR); 1 nM metribolone): 6.41
- cells responding dramatically (nuclear localization of AR) (Androgen Receptor (AR); high (1 nM) metribolone): 20%
- putrescine, spermidine, N-acetyl spermidine and N-acetyl spermine levels (LNCaP cells [1]): increased
- spermine level (LNCaP cells [1]): markedly decreased spermine level
- R1881 induced ROS levels (LNCaP cells [2]): only a minor increase in ROS levels
- ROS production (DCFH dye oxidation) [3]: high levels of ROS
- increase in the SSAT transcript (SSAT; LNCaP cells stably transfected with SSAT siRNA (si22), 96 h R1881): less than 2 fold
- increase in SSAT mRNA level (SSAT; LNCaP cells transfected only with the vector, 96 h R1881): over 8 fold
- SSAT over-expression, dependence on R1881 concentration (SSAT; LNCaP cells, 1 nM vs 0.05 nM R1881): over-expressed only in cells treated with 1 nM R1881
- increase in SSAT mRNA level (SSAT; R1881 treated LNCaP cells vs untreated control cells): > 30 fold
- SSAT gene expression (microarray) [4]: highly overexpressed gene
- nuclear and cytoplasmic ROS levels (v0 of DCFH dye oxidation) [5]: increase over time
